Assays:
[1] = system: TLR7; assay: Production of type I IFN after administration of polyuridine (serum ELISA); assay type: in vivo; conditions: Alg1-KO mice versus WT; 50 μg/mouse i.v. with DOTAP; 2 and 6 hours after administration
Protocol: To C57BL/6 mice (WT mice) and Alg1-KO mice, polyuridine was intravenously administered together with a liposome transfection reagent, DOTAP. The dosage was 50 μg/mouse. Serum IFNα and IFNβ were measured by ELISA at 2 and 6 hours after administration.

[2] = system: intraperitoneal macrophages (CD11b+F4/80+ cells); assay: Production of IFNβ after cGAMP stimulation of intraperitoneal macrophages; assay type: cell-based, mouse; conditions: macrophages derived from Alg1-KO mice versus WT; 3, 10 or 30 μM; 24 and 48 hours
Protocol: To C57BL/6N mice and Alg1-KO mice, a 3% thioglycolate medium was intraperitoneally administered at 1 mL/body. After 3 days, 5 mL of 5 mM EDTA/PBS was injected for intraperitoneal lavage and the drain was collected. After haemolysis treatment, the proportion of CD11b^+F4/80^+ cells among intraperitoneal invasive cells was calculated on a flow cytometer.
The cells were seeded in a 96-well plate so that the CD11b^+F4/80^+ cells are 2×10^5 cells/well, the culture supernatant was discarded after 1 hour, the cells were washed once with the medium and the medium containing 3, 10 or 30 μM cyclic GMP-AMP (cGAMP), respectively was added. The culture supernatant was collected after 24 and 48 hours and the amount of IFN-β in the culture supernatants was measured.

Substance: polyuridine
- production of IFNα (serum) [1]: increased compared to WT
- production of IFNβ (serum) [1]: increased compared to WT

Substance: cyclic GMP-AMP [cGAMP]
- production of IFNβ (culture supernatant) [2]: increased compared to WT

Reference: patent US11638744B2, “Immunity enhancing agent for cancer by Allergin-1 antagonist” (ONO PHARMACEUTICAL CO., LTD., priority 2015, dated 2023)
